Assay results taken from patent US20020103107A1, “Screening assay for anti-thrombotic/anti-platelet activity” (priority 2000, published 2002).
Values belong to the molecule of their own block, whether it stands above or below them.

Legend:
[1] = molecular target: PAR-1 (Homo sapiens, UniProt P25116); experiment: Platelet aggregation via the PAR-1 pathway (TRAP-1 / rapid onset α-thrombin response); assay type: cell-based
Source text: Therefore, GP Ib is the likely candidate.

[2] = molecular target: T1, PAR-4 (Homo sapiens, UniProt Q96RI0); experiment: Platelet aggregation via the PAR-4 pathway (TRAP-4 / γ-thrombin); assay type: cell-based; conditions: SCH203099 5 to 10 μM
T1 sequence (Q96RI0 18-385): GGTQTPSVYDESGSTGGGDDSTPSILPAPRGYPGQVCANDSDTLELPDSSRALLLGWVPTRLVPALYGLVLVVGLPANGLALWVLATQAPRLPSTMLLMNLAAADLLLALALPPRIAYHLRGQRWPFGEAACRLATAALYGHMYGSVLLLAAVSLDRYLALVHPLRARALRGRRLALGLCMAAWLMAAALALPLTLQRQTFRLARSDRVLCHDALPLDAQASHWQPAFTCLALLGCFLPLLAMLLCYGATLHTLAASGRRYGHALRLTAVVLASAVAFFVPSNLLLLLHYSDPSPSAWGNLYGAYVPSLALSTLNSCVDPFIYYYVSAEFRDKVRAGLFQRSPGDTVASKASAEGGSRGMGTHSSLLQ

[3] = tested on: platelets; experiment: Calcium mobilization in Fura-2 loaded platelets; assay type: cell-based, human; conditions: 10 μM SCH 203099 for one hour
Method: (§1) Further studies were conducted to distinguish between polymerizing fibrin-dependent platelet aggregation versus platelet trapping. True platelet aggregation involves signal transduction, second messenger formation with subsequent mobilization of internal calcium stores and the platelet release reaction. Platelet trapping, in contrast, by polymerizing fibrin would not involve any of these secondary responses. […] The platelet release reaction was monitored by release of dense granule ATP. Here the release reaction was followed simultaneously with aggregation. […] However, conditions that induced platelet adhesion/polymerizing fibrin-trapping were not associated with any ATP release.
The mobilization of internal stores of calcium, [Ca^+2]i, was monitored with a Hitachi F-2000 fluorescence spectrophotometer in the presence of extracellular EGTA to chelate the extracellular Ca^+2 (Soslau, G. et al. 1995. Biochim. Biophys. Acta 1268:73-80). Platelets, as PRP, were pre-loaded with 1 μM Fura-2 AM for 45 to 60 minutes and then washed and resuspended in hepes Tyrode's buffer at a concentration of […]. Samples were incubated at room temperature with or without 10 μM SCH 203099 for one hour prior to analysis. […] Agonists were added through an injection port at various concentrations. Excitation wavelengths were 340 nm and 380 nm and emission was measured at 505 nm. […]

[4] = tested on: platelets; experiment: ATP release (platelet release reaction); assay type: cell-based, human; conditions: versus corresponding control samples
Method: as §1
The platelet release reaction was monitored simultaneously in some experiments with aggregation per known techniques (Soslau, G. and J. Parker. 1992. Thromb. Res. 66:15-21). The release of dense granule ATP from aggregating platelets was detected as light emission in the Chronolog lumi-aggregometer produced by the reaction of ATP with luciferin catalyzed by luficerase (chrono-lume).

[5] = tested on: platelets; experiment: Synergistic platelet aggregation with suboptimal doses of agonists; assay type: cell-based, human; conditions: PAR1 inactivated
Method: In all cases, the sum of the aggregation induced by the individual agonists at suboptimal concentrations varied between 0 and 15% (agonist concentrations varied between 0.01 and 0.005 U/ml for α-thrombin; 0.1 to 2 nM for γ-thrombin; 0.38 to 0.76 μM for TRAP-1; 175 to 350 μM for TRAP-4). The low dose of α-thrombin employed was below the level required to function at PAR-1 or PAR-4 but adequate to activate GP Ib. TRAP-4 and γ-thrombin appeared to function only at PAR-4.

[6] = tested on: human platelets; experiment: Platelet aggregation of washed platelets (aggregometer), α-thrombin and other agonists
Method: The requirement of GP Ib for polymerizing fibrin was defined in a series of studies where results were compared with thrombin plus fibrinogen added to platelets versus platelets added to polymerizing fibrin. Washed platelets (50 μl) as a 10× concentrate were added to 0.05 to 0.1 U/ml α-thrombin plus fibrinogen pre-incubated for 2 minutes (polymerizing fibrin) in 430 μl buffer.
Blood was drawn by venopuncture into plastic tubes that contained 1/10 volume 3.8% citrate and platelet-rich plasma (PRP) was prepared in accordance with known techniques (Soslau, G. and J. Giles. 1982. Thrombos. Res. 26:443-455). Blood samples were obtained from healthy donors who were medication free. Washed platelets were prepared from the PRP by known methods (Basheer, A. R. et al. 1995. Biochim. Biophys. Acta 1250:97-109). Briefly, PRP was diluted with 3 volumes of 100 nM citrate buffer (pH 6.0) plus 1 to 2 volumes of hepes Tyrode's buffer (pH 7.4), final volume of 50 ml, and resuspended in hepes Tyrode's buffer with 1 mg/ml dextrose plus 1 mg/ml bovine serum albumin at 2×10^6/μl to 3×10^6/μl (a 10× normal concentration).
Platelet aggregations were performed on a dual-channel Chronolog lumi aggregometer (Chronolog Corp., Havertown, Pa.) by known methods (Soslau, G. et al. 1988. Biochem. Biophys. Res. Commun. 15:909-916). Aggregations were conducted with 480 μl washed platelets or a 50 μl sample of the concentrated platelets added to 430 μl hepes Tyrode's buffer with a final platelet count of 2×0^5/μl to 3×10^5/μl. Agonists and antagonists were added at various concentrations.

[7] = tested on: GP Ib; experiment: Platelet aggregation via the GP Ib pathway (α-thrombin with PAR-1 blocked / polymerizing fibrin); assay type: cell-based, human
Method: This antibody is known to selectively bind to the thrombin binding site.
The presence of three distinct thrombin receptors on human platelets was shown in experiments with combinations of inhibitors and PAR-4 desensitization. Platelets treated with SCH203099 (7.5 μM) plus ATAP-2 (50 μg/ml) have the PAR-1 receptor blocked at two levels, the tethered ligand and the PAR-1 receptor site for the tethered ligand. […] The delay in aggregation can be explained by the time required for the generation of polymerizing fibrin which would participate in platelet aggregation. This alternative α-thrombin pathway would be obscured normally by the rapid acting PAR-1 pathway.
(§2) AEBSF blocks the catalytic site, but not the GP Ib-binding site of thrombin. Platelets were treated under identical conditions with AEBSF plus the thrombin substrate CBS 34.47 (7.5 μM) in order to determine if AEBSF remains active in the presence of the polymerizing fibrin-thrombin complex. After 5 minutes incubation, the platelets were pelleted in a microcentrifuge for 4 minutes at 14,000 rpm and the generation of product was monitored at 405 nm. AEBSF inhibited thrombin activity in excess of 90%.

[8] = tested on: platelets; experiment: Platelet aggregation induced by U46619 and ADP; assay type: cell-based, human
[9] = tested on: α-thrombin; experiment: Sensitivity of α-thrombin to thrombin inhibitors; assay type: cell-based
[10] = tested on: β-thrombin; experiment: Sensitivity of β-thrombin to thrombin inhibitors; assay type: cell-based
[11] = tested on: γ-thrombin; experiment: Sensitivity of γ-thrombin to thrombin inhibitors; assay type: cell-based
[12] = tested on: thrombin; experiment: Thrombin activity with thrombin substrate CBS 34.47, product monitored at 405 nm; assay type: biochemical; conditions: in presence of polymerizing fibrin-thrombin complex and platelets; CBS 34.47 7.5 μM; 5 minutes incubation
Method: as §2

PAR-1, sequence (P25116 22-425): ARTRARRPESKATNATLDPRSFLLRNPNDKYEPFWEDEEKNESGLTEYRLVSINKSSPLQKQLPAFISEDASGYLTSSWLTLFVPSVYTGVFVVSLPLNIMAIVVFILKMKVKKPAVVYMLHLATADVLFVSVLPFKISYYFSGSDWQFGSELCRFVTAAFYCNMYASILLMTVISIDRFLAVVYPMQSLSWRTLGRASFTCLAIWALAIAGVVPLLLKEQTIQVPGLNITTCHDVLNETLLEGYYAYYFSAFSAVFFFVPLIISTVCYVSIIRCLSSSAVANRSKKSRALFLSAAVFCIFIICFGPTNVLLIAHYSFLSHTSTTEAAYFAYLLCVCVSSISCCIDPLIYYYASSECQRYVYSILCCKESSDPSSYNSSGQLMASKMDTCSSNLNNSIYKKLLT

inhibition of TRAP-1-induced aggregation ([1]; SCH203099 5 to 10 μM): completely inhibited
inhibition of platelet activation induced by TRAP-4 ([2]; 1 mM TRAP-4): did not inhibit
inhibition of platelet activation induced by γ-thrombin ([2]; 10 to 30 nM γ-thrombin): did not inhibit
Molecule: CNc1nc(NC2CC2)nc2ccc3c(ccn3Cc3ccc(C(C)C)cc3)c12 [SCH203099]
mobilization of internal calcium in response to TRAP-1 in treated platelets [3]: only control platelets responded
mobilization of internal calcium in response to α-thrombin in treated platelets ([3]; compared to controls): delayed
ATP release of drug-treated platelets aggregating under conditions dependent on polymerizing fibrin [4]: equal amounts of ATP release
response of treated platelets to low dose α-thrombin plus TRAP-4 [5]: significant response
aggregation profile of preincubated/treated platelets stimulated with α-thrombin ([6]; relative to controls, ultimately reached a similar level of aggregation): delayed aggregation profile

effect on rapid onset α-thrombin-induced PAR-1 pathway aggregation ([1]; for the first few minutes, aggregation then ensued via the GP Ib pathway): inhibited
effect on aggregation via the PAR-1 pathway when γ407 replaced normal fibrinogen ([1]; until γ407 began to polymerize): initially blocked
Molecule: RGDS
aggregation with polymerizing γ407 via the GP Ib pathway in the presence of RGDS [7]: at a reduced level
effect on aggregation in the presence of polymerizing fibrin ([7]; platelets added to α-thrombin plus fibrinogen pre-incubated 2 minutes): not affected significantly
effect on aggregation induced by ADP [8]: completely blocked
effect on aggregation induced by U46619 [8]: completely blocked
aggregation in the presence of RGDS without added fibrinogen ([6]; residual adhering/endogenous fibrinogen only): none occurred

Molecule: hirudin
effect on aggregation, inhibitor added 2 minutes after fibrinogen was pre-incubated with thrombin, platelets added 30 seconds later ([7]; polymerizing fibrin present): prevent aggregation completely
inhibition of α-thrombin [9]: completely inhibited
inhibition of β-thrombin [10]: completely inhibited
sensitivity of γ-thrombin to the inhibitor [11]: totally insensitive
effect on aggregation, inhibitor added to platelets followed by thrombin plus fibrinogen ([6]; hirudin 1 to 2 U/ml): completely inhibited

Molecule: GPRP
effect on α-thrombin-induced platelet aggregation ([6]; thrombin plus fibrinogen): no significant effect

Molecule: NCCc1ccc(S(=O)(=O)F)cc1 [AEBSF]
effect on aggregation, added after formation of the thrombin-fibrin complex but prior to the addition of platelets [7]: did not inhibit
inhibition of thrombin activity [12]: > 90%
effect on aggregation, added to thrombin prior to the addition of fibrinogen and platelets [6]: completely inhibited
